The EC50 is the concentration needed to bring the measured effect to its halfway point. Broadly, the Emax is the greatest response seen or fitted, relative to the assay's reference.

The text below walks through data of patent publication US12281149B2, “Modulators of G-protein coupled receptors” (priority 2021, dated 2025).

Format in all cases: cell-based
Experiment [1] addresses T1, GIP receptor (Homo sapiens, UniProt P48546).
T1 sequence (P48546 22-466): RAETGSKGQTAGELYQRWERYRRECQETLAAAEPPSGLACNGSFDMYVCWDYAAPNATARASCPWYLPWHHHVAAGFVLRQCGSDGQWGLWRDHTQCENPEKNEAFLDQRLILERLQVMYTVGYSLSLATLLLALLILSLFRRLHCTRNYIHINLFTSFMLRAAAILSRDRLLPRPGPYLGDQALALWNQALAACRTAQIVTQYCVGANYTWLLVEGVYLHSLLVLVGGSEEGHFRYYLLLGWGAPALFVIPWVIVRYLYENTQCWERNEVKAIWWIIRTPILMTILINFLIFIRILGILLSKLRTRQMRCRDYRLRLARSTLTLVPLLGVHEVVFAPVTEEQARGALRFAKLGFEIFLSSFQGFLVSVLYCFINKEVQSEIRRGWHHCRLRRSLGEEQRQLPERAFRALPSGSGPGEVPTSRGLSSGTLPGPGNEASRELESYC
The experiment in a line: HitHunter cAMP assay, GIP receptor. The settings on record: for Emax: CHO cells, cAMP, normalized to maximum signal from GIP (high) and DMSO (low), read-out: Emax GIP-1R. Background: Changes in cAMP serve as a functional read-out for many G protein-coupled receptors.

Experiment [2] concerns the target T2, GLP-1 receptor (Homo sapiens, UniProt P43220). The experiment in a line: PathHunter β-arrestin assay, GLP-1 receptor. More on the design: host or cells: PathHunter CHO-K1 GLP1R β-Arrestin Cell Line.
For experiment [3], the target named is T2, GLP-1 receptor. The experiment in a line: HitHunter cAMP assay, GLP-1 receptor. The conditions noted are these: for Emax: CHO cells, cAMP, normalized to maximum signal from GLP-1 (high) and DMSO (low), read-out: Emax GLP-1R.
Experiment [4] concerns the target T1, GIP receptor. The experiment in a line: PathHunter β-arrestin assay, GIP receptor. Further details: host or cells: PathHunter CHO-K1 GIPR β-Arrestin Cell Line.
Setting [5] is: CHO cells stably expressing GIP receptor, cAMP accumulation, 30 min, read-out: EC50 GIP-1R.
The mark [6] stands for this setting: β-arrestin-2 recruitment, PathHunter CHO-K1 GLP1R β-Arrestin Cell Line, 90 min at 37° C., normalized to GLP-1, read-out: GLP-1R β Arrestin EC50.
Where [7] appears, read: CHO cells stably expressing human GLP-1 receptor, cAMP accumulation, 30 min, read-out: EC50 GLP-1R.
The mark [8] stands for this setting: β-arrestin-2 recruitment, PathHunter CHO-K1 GIPR β-Arrestin Cell Line, 90 min at 37° C., normalized to GIP, read-out: GIPR β Arrestin EC50.

*1 amine or outer side, *2 acyl side, *3 side chain or, on linkers, in order; H or OH if unused. Where a SMILES comes first, the peptide text is derived from it. Side-chain parts run from the residue outwards. [ ]: non-standard residue; d: D form. The star is where a group is joined. C20 diacid = O=C(O)CCCCCCCCCCCCCCCCCCC(=O)*; γGlu = O=C(O)[C@H](CCC(=O)[*:2])N[*:1]; X43 = O=C1CCC(C(=O)*)(c2ccccc2)CN1; X79 = O=C1CC(C(=O)*)(c2ccccn2)CN1; X42 = CCOc1cnn(C(C)(C)C(=O)*)c1; X7 = CC(C)(C(=O)*)c1cccc(C#N)c1; AEEA = NCCOCCOCC(=O)O; Aib = CC(C)(N)C(=O)O; βAla = NCCC(=O)O

T2 sequence (P43220 24-463): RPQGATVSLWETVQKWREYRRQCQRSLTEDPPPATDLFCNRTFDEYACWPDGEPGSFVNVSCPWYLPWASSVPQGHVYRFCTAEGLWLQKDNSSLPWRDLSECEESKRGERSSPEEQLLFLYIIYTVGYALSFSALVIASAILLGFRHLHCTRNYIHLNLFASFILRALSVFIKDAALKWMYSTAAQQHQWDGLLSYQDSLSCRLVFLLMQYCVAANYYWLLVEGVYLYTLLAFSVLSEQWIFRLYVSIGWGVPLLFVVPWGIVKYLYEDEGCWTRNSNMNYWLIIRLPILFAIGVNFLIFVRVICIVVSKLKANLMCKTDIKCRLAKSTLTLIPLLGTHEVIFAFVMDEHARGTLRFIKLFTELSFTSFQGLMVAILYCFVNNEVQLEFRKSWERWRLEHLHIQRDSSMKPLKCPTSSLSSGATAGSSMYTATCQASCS

Turning to `CC[C@H](C)[C@H](NC(=O)[C@H](CC(C)C)NC(=O)[C@H](Cc1c[nH]c2ccccc12)NC(=O)[C@H](CCC(N)=O)NC(=O)[C@@H](NC(=O)[C@H](Cc1ccccc1)NC(=O)[C@H](C)NC(=O)[C@H](CCCCNC(=O)COCCOCCNC(=O)COCCOCCNC(=O)CC[C@H](NC(=O)CCCCCCCCCCCCCCCCCCC(=O)O)C(=O)O)NC(=O)[C@H](CCC(N)=O)NC(=O)[C@H](C)NC(=O)[C@@H](NC(=O)[C@H](CCCCN)NC(=O)[C@H](CC(=O)O)NC(=O)[C@H](CC(C)C)NC(=O)C(C)(C)NC(=O)[C@@H](NC(=O)[C@H](CO)NC(=O)[C@H](Cc1ccc(O)cc1)NC(=O)[C@H](CC(=O)O)NC(=O)[C@H](CO)NC(=O)[C@@H](NC(=O)[C@H](Cc1ccccc1)NC(=O)[C@@H](NC(=O)CNC(=O)[C@H](CCC(=O)O)NC(=O)CCNC(=O)C(C)(C)c1cccc(C#N)c1)[C@@H](C)O)[C@@H](C)O)[C@@H](C)CC)[C@@H](C)CC)C(C)C)C(=O)N[C@@H](C)C(=O)NCC(=O)NCC(=O)N1CCC[C@H]1C(=O)N[C@@H](CO)C(=O)N[C@@H](CO)C(=O)NCC(=O)N[C@@H](C)C(=O)N1CCC[C@H]1C(=O)N1CCC[C@H]1C(=O)N1CCC[C@H]1C(=O)N[C@@H](CO)C(N)=O` [Compound 150] ({X7-βAla}-EGTFTSDYSI[Aib]LDKIAQK([AEEA-AEEA-γGlu-C20 diacid])AFVQWLIAGGPSSGAPPPS-NH2), the concentration for a half-maximal effect (EC50) is 0.0001 to 0.001 µM in experiment [1], over 1 µM in experiment [2], 0.0001 to 0.001 µM in experiment [3] and under 1 µM in experiment [4]. Besides, the Emax was 91% in experiment [1] and 103% in experiment [3].
Consider `CC[C@H](C)[C@H](NC(=O)[C@H](CC(C)C)NC(=O)[C@H](Cc1c[nH]c2ccccc12)NC(=O)[C@H](CCC(N)=O)NC(=O)[C@@H](NC(=O)[C@H](Cc1ccccc1)NC(=O)[C@H](C)NC(=O)[C@H](CCCCNC(=O)COCCOCCNC(=O)COCCOCCNC(=O)CC[C@H](NC(=O)CCCCCCCCCCCCCCCCCCC(=O)O)C(=O)O)NC(=O)[C@H](CCC(N)=O)NC(=O)[C@H](C)NC(=O)[C@@H](NC(=O)[C@H](CCCCN)NC(=O)[C@H](CC(=O)O)NC(=O)[C@H](CC(C)C)NC(=O)C(C)(C)NC(=O)[C@@H](NC(=O)[C@H](CO)NC(=O)[C@H](Cc1ccc(O)cc1)NC(=O)[C@H](CC(=O)O)NC(=O)[C@H](CO)NC(=O)[C@@H](NC(=O)[C@H](Cc1ccccc1)NC(=O)[C@@H](NC(=O)CNC(=O)[C@H](CCC(=O)O)NC(=O)CCNC(=O)C1(c2ccccn2)CNC(=O)C1)[C@@H](C)O)[C@@H](C)O)[C@@H](C)CC)[C@@H](C)CC)C(C)C)C(=O)N[C@@H](C)C(=O)NCC(=O)NCC(=O)N1CCC[C@H]1C(=O)N[C@@H](CO)C(=O)N[C@@H](CO)C(=O)NCC(=O)N[C@@H](C)C(=O)N1CCC[C@H]1C(=O)N1CCC[C@H]1C(=O)N1CCC[C@H]1C(=O)N[C@@H](CO)C(N)=O` (stereo partly drawn) [Compound 151] ({X79-βAla}-EGTFTSDYSI[Aib]LDKIAQK([AEEA-AEEA-γGlu-C20 diacid])AFVQWLIAGGPSSGAPPPS-NH2), for which the EC50 in experiment [1] (setting [5]) was 0.001 to 0.01 µM; in experiment [2] (setting [6]) it was over 1 µM; in experiment [3] (setting [7]), 0.001 to 0.01 µM; in experiment [4] (setting [8]) it was over 1 µM. Besides, the Emax came to 105% in experiment [1] and 101% in experiment [3].
For the molecule `CCOc1cnn(C(C)(C)C(=O)NCCC(=O)N[C@@H](CCC(=O)O)C(=O)NCC(=O)N[C@H](C(=O)N[C@@H](Cc2ccccc2)C(=O)N[C@H](C(=O)N[C@@H](CO)C(=O)N[C@@H](CC(=O)O)C(=O)N[C@@H](Cc2ccc(O)cc2)C(=O)N[C@@H](CO)C(=O)N[C@H](C(=O)NC(C)(C)C(=O)N[C@@H](CC(C)C)C(=O)N[C@@H](CC(=O)O)C(=O)N[C@@H](CCCCN)C(=O)N[C@H](C(=O)N[C@@H](C)C(=O)N[C@@H](CCC(N)=O)C(=O)N[C@@H](CCCCNC(=O)COCCOCCNC(=O)COCCOCCNC(=O)CC[C@H](NC(=O)CCCCCCCCCCCCCCCCCCC(=O)O)C(=O)O)C(=O)N[C@@H](C)C(=O)N[C@@H](Cc2ccccc2)C(=O)N[C@H](C(=O)N[C@@H](CCC(N)=O)C(=O)N[C@@H](Cc2c[nH]c3ccccc23)C(=O)N[C@@H](CC(C)C)C(=O)N[C@H](C(=O)N[C@@H](C)C(=O)NCC(=O)NCC(=O)N2CCC[C@H]2C(=O)N[C@@H](CO)C(=O)N[C@@H](CO)C(=O)NCC(=O)N[C@@H](C)C(=O)N2CCC[C@H]2C(=O)N2CCC[C@H]2C(=O)N2CCC[C@H]2C(=O)N[C@@H](CO)C(N)=O)[C@@H](C)CC)C(C)C)[C@@H](C)CC)[C@@H](C)CC)[C@@H](C)O)[C@@H](C)O)c1` [Compound 152] ({X42-βAla}-EGTFTSDYSI[Aib]LDKIAQK([AEEA-AEEA-γGlu-C20 diacid])AFVQWLIAGGPSSGAPPPS-NH2), the concentration for a half-maximal effect (EC50) in experiment [1] (setting [5]) was 0.01 to 0.1 µM; in experiment [2] (setting [6]), over 1 µM; in experiment [3] (setting [7]), 0.0001 to 0.001 µM; in experiment [4] (setting [8]) it was over 1 µM. In addition, the maximal effect (Emax) is 104% in experiment [1] and 98% in experiment [3].
For the molecule `CC[C@H](C)[C@H](NC(=O)[C@H](CO)NC(=O)[C@H](CCCCNC(=O)COCCOCCNC(=O)COCCOCCNC(=O)CC[C@H](NC(=O)CCCCCCCCCCCCCCCCCCC(=O)O)C(=O)O)NC(=O)[C@H](CC(=O)O)NC(=O)[C@H](CO)NC(=O)[C@@H](NC(=O)[C@H](Cc1ccccc1)NC(=O)[C@@H](NC(=O)CNC(=O)[C@H](CCC(=O)O)NC(=O)CCNC(=O)C1(c2ccccc2)CCC(=O)NC1)[C@@H](C)O)[C@@H](C)O)C(=O)N[C@@H](Cc1ccc(O)cc1)C(=O)N[C@@H](CC(C)C)C(=O)N[C@@H](CC(=O)O)C(=O)N[C@@H](CCCCN)C(=O)N[C@@H](CCC(N)=O)C(=O)N[C@@H](C)C(=O)N[C@@H](C)C(=O)NC(C)(C)C(=O)N[C@@H](CCC(=O)O)C(=O)N[C@@H](Cc1ccccc1)C(=O)N[C@H](C(=O)N[C@@H](CC(N)=O)C(=O)N[C@@H](Cc1c[nH]c2ccccc12)C(=O)N[C@@H](CC(C)C)C(=O)N[C@@H](CC(C)C)C(=O)N[C@@H](C)C(=O)NCC(=O)NCC(=O)N1CCC[C@H]1C(=O)N[C@@H](CO)C(=O)N[C@@H](CO)C(=O)NCC(=O)N[C@@H](C)C(=O)N1CCC[C@H]1C(=O)N1CCC[C@H]1C(=O)N1CCC[C@H]1C(=O)N[C@@H](CO)C(N)=O)C(C)C` (stereo partly drawn) [Compound 153] ({X43-βAla}-EGTFTSDK([AEEA-AEEA-γGlu-C20 diacid])SIYLDKQAA[Aib]EFVNWLLAGGPSSGAPPPS-NH2), the concentration for a half-maximal effect (EC50) in experiment [1] (setting [5]) is 0.001 to 0.01 µM; in experiment [2] (setting [6]), over 1 µM; in experiment [3] (setting [7]) it was 0.0001 to 0.001 µM; in experiment [4] (setting [8]), over 1 µM. For the same molecule, the figures for the maximal response (Emax) in experiment [1] and in experiment [3] were 105% and 101%, respectively.
On to `CC[C@H](C)[C@H](NC(=O)[C@H](CO)NC(=O)[C@H](Cc1ccc(O)cc1)NC(=O)[C@H](CC(=O)O)NC(=O)[C@H](CO)NC(=O)[C@@H](NC(=O)[C@H](Cc1ccccc1)NC(=O)[C@@H](NC(=O)CNC(=O)[C@H](CCC(=O)O)NC(=O)CCNC(=O)C1(c2ccccc2)CCOCC1)[C@@H](C)O)[C@@H](C)O)C(=O)N[C@@H](Cc1ccc(O)cc1)C(=O)N[C@@H](CC(C)C)C(=O)N[C@@H](CC(=O)O)C(=O)N[C@@H](CCCCN)C(=O)N[C@@H](CCC(N)=O)C(=O)N[C@@H](C)C(=O)N[C@@H](C)C(=O)NC(C)(C)C(=O)N[C@@H](CCC(=O)O)C(=O)N[C@@H](Cc1ccccc1)C(=O)N[C@H](C(=O)N[C@@H](CC(N)=O)C(=O)N[C@@H](Cc1c[nH]c2ccccc12)C(=O)N[C@@H](CC(C)C)C(=O)N[C@@H](CC(C)C)C(=O)N[C@@H](C)C(=O)NCC(=O)NCC(=O)N1CCC[C@H]1C(=O)N[C@@H](CO)C(=O)N[C@@H](CO)C(=O)NCC(=O)N[C@@H](C)C(=O)N1CCC[C@H]1C(=O)N1CCC[C@H]1C(=O)N1CCC[C@H]1C(=O)N[C@@H](CO)C(=O)N[C@@H](CCCCNC(=O)COCCOCCNC(=O)COCCOCCNC(=O)CC[C@H](NC(=O)CCCCCCCCCCCCCCCCCCC(=O)O)C(=O)O)C(N)=O)C(C)C` [Compound 154], for which the EC50 in experiment [1] (setting [5]) is 0.01 to 0.1 µM; in experiment [2] (setting [6]), over 1 µM; in experiment [3] (setting [7]), 0.001 to 0.01 µM; in experiment [4] (setting [8]), over 1 µM. Moreover, the results for the Emax in experiment [1] and in experiment [3] were 106% and 99%, respectively.
